Assay results reported in US9340577B2, “HLA binding motifs and peptides and their uses” (priority 1992, dated 2016).
Read-outs that look alike come from different tables or passages of the source. No end group written: not given here.

What was measured:
Experiment in all cases: biochemical
DR1 (DRB1*0101) = DR1 (DRB1*0101) (Homo sapiens, UniProt P01903+P01911, A100R/D57E/F55L/F60I/F76Y/I96L/L162R/M171V/P40L/Q125E/R42F/V115G/Y59C); type: binding
DR4w4 (DRB1*0401) = DR4w4 (DRB1*0401) (Homo sapiens, UniProt P01903+P01911, A100K/A169T/F76Y/I96L/K127E/L162R/M171V/N62H/P40V/Q125Y/R42H/S133A/S149N/S66Y/V115G/V209L/W38E); type: binding
DR7 (DRB1*0701) = DR7 (DRB1*0701) (Homo sapiens, UniProt P01903+P01911, A100R/A102G/A103Q/D57E/D86V/E43K/F76Y/K127E/L162R/M171V/P40G/Q125H/Q99D/R33Q/R42Y/R54Q/S133A/S66F/T210M/V115G/Y107V/Y59L/Y89S); type: binding
DRB1*0405 = DRB1*0405 (Homo sapiens, UniProt P01903+P01911, A100R/A169T/D86S/F76Y/I96L/K127E/L162R/M171V/N62H/P40V/Q125Y/R42H/S133A/S149N/S66Y/V115G/V209L/W38E); type: binding
DRB1*0802 = DRB1*0802 (Homo sapiens, UniProt P01903+P01911, A100R/A103L/A169T/F76Y/H45Y/I96F/K41T/L162R/M171V/P40S/Q125H/Q178H/Q39Y/Q99D/R218S/R42G/S66Y/V115G/W38E); type: binding
DRB1*0901 = DRB1*0901 (Homo sapiens, UniProt P01903+P01911, A100R/A103E/D57H/D86V/F55Y/F60I/F76Y/I96F/K127E/L162R/M171V/P40D/Q125H/Q99R/R33Q/R42F/S133A/S66N/T210M/V115G/W38K/Y107V/Y59G/Y89S); type: binding
DRB1*1302 = DRB1*1302 (Homo sapiens, UniProt P01903+P01911, A100E/A169T/K41T/L162R/M171V/P40S/Q125H/Q178H/Q39Y/Q99D/R42S/S66N/T262R/V115G/W38E/Y61H); type: binding
DRB1*1302, sequence (P01903 26-254 limits assumed, other chains not shown): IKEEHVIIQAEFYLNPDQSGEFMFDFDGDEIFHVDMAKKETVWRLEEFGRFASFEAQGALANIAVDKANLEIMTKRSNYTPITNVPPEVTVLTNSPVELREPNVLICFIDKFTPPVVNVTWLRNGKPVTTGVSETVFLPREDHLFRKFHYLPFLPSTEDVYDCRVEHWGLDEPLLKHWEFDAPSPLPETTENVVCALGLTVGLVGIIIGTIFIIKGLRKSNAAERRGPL

DRB1*1501 = DRB1*1501 (Homo sapiens, UniProt P01903+P01911); type: binding
DRB4*0101 = DRB4*0101 (Homo sapiens, UniProt P01903+P13762, G164S); type: binding
DRB1*1101 = DRB1*1101 (Homo sapiens, UniProt P01903+P01911, A100R/A169T/A87E/I96F/K41T/L162R/M171V/P40S/Q125H/Q178H/Q39Y/Q99D/R42S/S66Y/T262R/V115G/W38E)
DRB1*1101, sequence (P01903 26-254 limits assumed, other chains not shown): as above

DRB5*0101 = DRB5*0101 (Homo sapiens, UniProt P01903+Q30154)

| Compound | IC50 (DR1 (DRB1*0101)) [µM] | IC50 (DR4w4 (DRB1*0401)) [µM] | IC50 (DR7 (DRB1*0701)) [µM] | IC50 (DRB1*0405) [µM] | IC50 (DRB1*0802) [µM] | IC50 (DRB1*0901) [µM] | IC50 (DRB1*1302) [µM] | IC50 (DRB1*1501) [µM] | IC50 (DRB4*0101) [µM] | IC50 (DRB1*1101; Binding affinity DRB1 *1101) [µM] | IC50 (DRB5*0101; Binding affinity DRB5 *0101) [µM] | IC50 (DRB1*1101) [µM] | IC50 (DRB5*0101) [µM] |
| --- | --- | --- | --- | --- | --- | --- | --- | --- | --- | --- | --- | --- | --- |
| CC[C@H](C)[C@H](NC(=O)[C@H](C)NC(=O)[C@H](CCCCN)NC(=O)[C@H](Cc1c[nH]cn1)NC(=O)[C@H](C)NC(=O)[C@H](CCCCN)NC(=O)[C@H](CO)NC(=O)[C@H](CCCCN)NC(=O)[C@H](CO)NC(=O)[C@@H](NC(=O)[C@H](CC(N)=O)NC(=O)[C@H](Cc1ccc(O)cc1)NC(=O)[C@H](C)N)[C@@H](C)CC)C(=O)N[C@@H](CCC(=O)O)C(=O)N[C@@H](CC(C)C)C(=O)O [Peptide 89.0159] | 0.651 | > 20 | > 20 | > 20 | > 20 | > 20 | > 20 | > 20 | > 20 | > 20 | > 20 | – | – |
| ALSVSKAKALQAIEL [Peptide 89.0170] | 0.084 | 0.281 | 3.21 | 8.43 | > 20 | 4.33 | 1.63 | > 20 | > 20 | > 20 | > 20 | – | – |
| CSAIEVQIALESLST [Peptide 90.0018] | – | 0.24 | 5.26 | 3.32 | > 20 | 12 | 0.617 | > 20 | 0.029 | > 20 | > 20 | – | – |
| DIAYKYAQLADVNSN [Peptide 89.0108] | 4.73 | 0.088 | 1.02 | 2.2 | > 20 | 10.6 | > 20 | > 20 | 0.295 | 12.6 | 0.15 | – | – |
| DRGIIILLLIRFRCS [Peptide 89.0062] | > 20 | > 20 | > 20 | 7.18 | 0.085 | > 20 | > 20 | 14.4 | 7.56 | 8.28 | > 20 | – | – |
| DSEIAYKYAQLADSD [Peptide 89.0051] | – | > 20 | > 20 | 12.2 | 0.624 | 5.32 | > 20 | 1.09 | 1.34 | 3.38 | > 20 | – | – |
| DSEIAYKYAQLADTN [Peptide 89.0012] | 0.734 | 1.95 | > 20 | 11 | 1.12 | 1.93 | > 20 | 3.44 | 0.275 | 3.54 | 19.6 | – | – |
| DSQIAFQYAQLADVD [Peptide 89.0130] | > 20 | 3 | > 20 | 9.99 | > 20 | > 20 | > 20 | > 20 | 0.014 | – | – | > 20 | 17.1 |
| EVHVGGQVIVCPASV [Peptide 90.0015] | 4.09 | 2.1 | 0.187 | 6.78 | > 20 | 2.6 | 0.152 | > 20 | 0.389 | > 20 | > 20 | – | – |
| EVHVGGQVIVCPTSI [Peptide 89.0184] | > 20 | > 20 | > 20 | 0.557 | > 20 | > 20 | > 20 | > 20 | > 20 | > 20 | > 20 | – | – |
| FQVIELQMALETLSK [Peptide 89.0182] | 1.01 | 0.224 | 0.183 | 0.232 | > 20 | 0.751 | > 20 | 14 | > 20 | 2.11 | – | – | – |
